Laboratory results from patent US12060349B2, “Glucosylceramide synthase inhibitors” (Genzyme Corporation, priority 2012, dated 2024).
pIC50: −log10 of the molar value. Read-outs that look alike come from different tables or passages of the source.

Tests used:
[1] = molecular target: T1, glucosylceramide synthase (Homo sapiens, UniProt Q16739); experiment: microsomal assay measuring conversion of ceramide to glucosylceramide by HPLC (GCS IC50); format: biochemical; details: concentration causing 50% inhibition of glucosylceramide synthase activity
T1 construct: Microsomes were isolated from A375 human melanoma cells; endogenous in cells; host or cells: A375 human melanoma cells (microsomal fraction, 100,000 g pellet)
T1 sequence (Q16739 1-394): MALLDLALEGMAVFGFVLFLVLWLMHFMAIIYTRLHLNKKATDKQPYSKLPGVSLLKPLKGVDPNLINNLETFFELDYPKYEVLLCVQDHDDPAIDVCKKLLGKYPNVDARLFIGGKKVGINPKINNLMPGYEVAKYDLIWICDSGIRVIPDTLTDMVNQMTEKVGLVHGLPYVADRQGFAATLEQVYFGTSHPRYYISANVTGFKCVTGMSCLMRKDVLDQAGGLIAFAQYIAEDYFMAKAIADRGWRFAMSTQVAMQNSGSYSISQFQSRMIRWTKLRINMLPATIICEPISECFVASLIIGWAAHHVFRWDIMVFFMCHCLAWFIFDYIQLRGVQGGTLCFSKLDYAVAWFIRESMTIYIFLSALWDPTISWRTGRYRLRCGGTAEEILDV
Summary of the method: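 IC50 is the compound concentration halving glucosylceramide synthase activity. Activity was measured in microsomes, with HPLC quantifying glucosylceramide formed from ceramide.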

[2] = system: C32 human melanoma cells; experiment: cell viability in the C32 cell-based assay (Viability, C32 IC50); details: concentration causing 50% cell death, values greater than 10 represent a lack of cell death
Summary of the method: (§1)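 Viability readouts were run alongside the GM3 cell-surface assay in the same B16 and C32 cultures. A figure above 10 indicates no cell death.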

[3] = system: B16 mouse melanoma cells; experiment: cell viability in the B16 cell-based assay (Viability, B16 IC50)
Summary of the method: as §1

[4] = system: GM3 expression on the cell surface, C32 human melanoma cells; experiment: cell based phenotypic assay, cell surface GM3 by antibody mediated immunofluorescence, C32 (GM3 C32 IC50); details: 50% inhibition of GM3 expression on the cell surface
Summary of the method: (§2)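 Two melanoma lines, mouse B16 and human C32, were treated and surface GM3 quantified by antibody immunofluorescence for IC50. A parallel viability readout gives the concentration killing 50% of cells, with values over 10 indicating no cell death.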

[5] = system: GM3 expression on the cell surface, B16 mouse melanoma cells; experiment: cell based phenotypic assay, cell surface GM3 by antibody mediated immunofluorescence, B16 (GM3 B16 IC50); details: 50% inhibition of GM3 expression on the cell surface
Summary of the method: as §2

[6] = Homo sapiens, C32, read-out: Viability, C32 IC50, C32 cells
[7] = Mus musculus, B16, read-out: Viability, B16 IC50
[8] = Homo sapiens, read-out: GM3 C32 IC50, C32 human melanoma cells
[9] = Mus musculus, read-out: GM3 B16 IC50, B16 mouse melanoma cells
[10] = Homo sapiens, C32, C32 cells, read-out: Viability, C32 IC50
[11] = Mus musculus, B16, B16 cells, concentration causing 50% cell death, values greater than 10 represent a lack of cell death, read-out: Viability, B16 IC50
[12] = Homo sapiens, C32 human melanoma cells, read-out: GM3 C32 IC50
[13] = Mus musculus, B16 mouse melanoma cells, read-out: GM3 B16 IC50

Row | pIC50 [4, 12] | pIC50 [5, 13] | pIC50 ([4]; C32 human melanoma cells, read-out: GM3 C32 IC50) | pIC50 ([5]; B16 mouse melanoma cells, read-out: GM3 B16 IC50) | SMILES | pIC50 [1] | pIC50 [2, 6] | pIC50 [3, 7] | pIC50 [4, 8] | pIC50 [5, 9] | pIC50 [2, 10] | pIC50 [3, 11] | pIC50 ([2]; C32 cells, read-out: Viability, C32 IC50) | pIC50 ([3]; B16 cells, concentration causing 50% cell death, values greater than 10 represent a lack of cell death, read-out: Viability, B16 IC50)
1 |  |  |  |  | COCCCOc1cnc(-c2cccc(C(C)(C)NC(=O)OC3CN4CCC3CC4)c2)nc1 (stereo not shown) [Example 323, Quinuclidin-3-yl (2-(3-(5-(3-methoxypropoxy)pyrimidin-2-yl)phenyl)propan-2-yl)carbamate] | 5.94 | 6.00 | ≤ 5.00 | 7.31 | 6.29 |  |  |  | 
2 |  |  |  |  | COCCCOc1cnc(-c2cccc(C(C)(C)NC(=O)OC3CN4CCC3CC4)c2)cn1 (stereo not shown) [Example 315, Quinuclidin-3-yl (2-(3-(5-(3-methoxypropoxy)pyrazin-2-yl)phenyl)propan-2-yl)carbamate] | 6.71 | 6.00 | ≤ 5.00 | 7.59 | 6.36 |  |  |  | 
3 | 7.51 | 5.96 |  |  | CNC(=O)c1cccc(Oc2cccc(C(C)(C)NC(=O)OC3CCN4CCC3CC4)c2)c1 (stereo not shown) [Example 298, 1-Aza-bicyclo[3.2.2]nonan-4-yl 2-(3-(3-(methylcarbamoyl)phenoxy)phenyl)propan-2-ylcarbamate] | 6.86 |  |  |  |  | 5.50 | ≤ 5.00 |  | 
4 |  |  | 7.84 | 6.63 | COCCOc1ccc(-c2ccc(C(C)(C)NC(=O)OC3CCN4CCC3CC4)nc2)cc1 (single isomer, unassigned) [Example 349, 1-Azabicyclo[3.2.2]nonan-4-yl 2-(5-(4-(2-methoxyethoxy)phenyl)pyridin-2-yl)propan-2-ylcarbamate] | 6.60 |  |  |  |  |  |  | 6.00 | ≤ 5.00
5 | 8.62 | 6.28 |  |  | O=C(OC1CCN2CCC1CC2)C1CCN(c2nccc(-c3ccc(F)cc3)n2)CC1 (stereo not shown) [Example 110, 1-Azabicyclo[3.2.2]nonan-4-yl 1-(4-(4-fluorophenyl)pyrimidin-2-yl)piperidine-4-carboxylate] | 8.91 |  |  |  |  | 6.00 | 5.42 |  | 
6 | 9.15 | 7.49 |  |  | COCCOCc1ccc(-c2ccnc(N3CCC(C(=O)NC4(C)CCN5CCC4CC5)CC3)n2)cc1 (stereo not shown) [Example 74, 1-(4-(4-((2-Methoxyethoxy)methyl)phenyl)pyrimidin-2-yl)-N-(4-methyl-1-azabicyclo[3.2.2]nonan-4-yl)piperidine-4-carboxamide] | 7.89 |  |  |  |  | 6.67 | ≤ 5.00 |  | 
7 |  |  |  |  | CC(C)(NC(=O)OC1CN2CCC1CC2)c1ccc(-c2ccc(C(=O)N3CCCCC3)cc2)cc1 (stereo not shown) [Example 262, Quinuclidin-3-yl 2-(4′-(piperidine-1-carbonyl)biphenyl-4-yl)propan-2-ylcarbamate] | 7.71 | 6.00 | ≤ 5.00 | 8.46 | 6.95 |  |  |  | 
8 | 9.48 | 7.16 |  |  | COCCOc1ccc(-c2ccnc(N3CCC(C(=O)NC4(C)CCN5CCC4CC5)CC3)n2)cc1 (stereo not shown) [Example 66, 1-(4-(4-(2-Methoxyethoxy)phenyl)pyrimidin-2-yl)-N-(4-methyl-1-azabicyclo[3.2.2]nonan-4-yl)piperidine-4-carboxamide] | 8.50 |  |  |  |  | 6.67 | 5.09 |  | 
9 | 7.85 | 6.45 |  |  | CN(C)C(=O)c1ccc(-c2ccc(C(C)(C)NC(=O)NC3(C)CCN4CCC3CC4)cc2)cc1 (stereo not shown) [Example 261, N,N-Dimethyl-4′-(2-(3-(4-methyl-1-azabicyclo[3.2.2]nonan-4-yl)ureido)propan-2-yl)biphenyl-4-carboxamide] | 7.22 |  |  |  |  | 5.50 | ≤ 5.00 |  | 
10 |  |  |  |  | CC(C)(NC(=O)OC1CN2CCC1CC2)c1ccc(-c2ccc(OCC#N)cc2)cc1 (stereo not shown) [Example 190, Quinuclidin-3-yl (2-(4′-(cyanomethoxy)-[1,1′-biphenyl]-4-yl)propan-2-yl)carbamate] | 8.59 | 6.00 | ≤ 5.00 | 9.11 | 7.32 |  |  |  | 
11 |  |  |  |  | CC(C)(NC(=O)OC1CN2CCC1CC2)c1ccc(-c2ccc(S(C)(=O)=O)cc2)cc1 (stereo not shown) [Example 235, Quinuclidin-3-yl (2-(4′-(methylsulfonyl)-[1,1′-biphenyl]-4-yl)propan-2-yl)carbamate] | 6.95 | ≤ 5.00 | ≤ 5.00 | 7.70 | 6.93 |  |  |  | 
12 | 9.48 | 7.73 |  |  | CC1(NC(=O)C2(F)CCN(c3nccc(Oc4ccc(C#N)cc4)n3)CC2)CCN2CCC1CC2 (stereo not shown) [Example 120, 1-(4-(4-Cyanophenoxy)pyrimidin-2-yl)-4-fluoro-N-(4-methyl-1-azabicyclo[3.2.2]nonan-4-yl)piperidine-4-carboxamide] | 8.39 |  |  |  |  | 6.50 | ≤ 5.00 |  | 
13 |  |  |  |  | O=C(NC1(c2ccc(-c3ccc(COCc4cccnc4)cc3)cc2)CC1)OC1CN2CCC1CC2 (stereo not shown) [Example 216, Quinuclidin-3-yl (1-(4′-((pyridin-3-ylmethoxy)methyl)-[1,1′-biphenyl]-4-yl)cyclopropyl)carbamate] | 8.03 | ≤ 5.00 | 5.10 | 7.95 | 6.70 |  |  |  | 
14 | 8.82 | 7.15 |  |  | CC1CN(C(=O)NC2(C)CCN3CCC2CC3)CCN1c1cccc(-c2ccccc2)c1 (stereo not shown) [Example 31, 4-([1,1′-Biphenyl]-3-yl)-3-methyl-N-(4-methyl-1-azabicyclo[3.2.2]nonan-4-yl)piperazine-1-carboxamide] | 8.39 |  |  |  |  | 6.00 | 5.12 |  | 
15 | 8.09 | 6.92 |  |  | CCOc1ccc(-c2cccc(C(C)(C)NC(=O)OC3CCN4CCC3CC4)c2)nn1 (stereo not shown) [Example 319, 1-Azabicyclo[3.2.2]nonan-4-yl (2-(3-(6-ethoxypyridazin-3-yl)phenyl)propan-2-yl)carbamate] | 7.12 |  |  |  |  | ≤ 5.00 | ≤ 5.00 |  | 

Row | SMILES | pIC50 [4, 12] | pIC50 [5, 13] | pIC50 ([4]; C32 human melanoma cells, read-out: GM3 C32 IC50) | pIC50 ([5]; B16 mouse melanoma cells, read-out: GM3 B16 IC50) | pIC50 [1] | pIC50 [2, 6] | pIC50 [3, 7] | pIC50 [4, 8] | pIC50 [5, 9] | pIC50 [2, 10] | pIC50 [3, 11] | pIC50 ([2]; C32 cells, read-out: Viability, C32 IC50) | pIC50 ([3]; B16 cells, concentration causing 50% cell death, values greater than 10 represent a lack of cell death, read-out: Viability, B16 IC50)
16 | CC(C)(C)CCS(=O)(=O)c1ccc(C#CC(C)(C)NC(=O)NC2(C)CN3CCC2CC3)cc1 (stereo not shown) [Example 337, 1-(4-(4-((3,3-Dimethylbutyl)sulfonyl)phenyl)-2-methylbut-3-yn-2-yl)-3-(3-methylquinuclidin-3-yl)urea] | 8.60 | 7.03 |  |  | 7.84 |  |  |  |  | 6.00 | 5.67 |  | 
17 | CCC1(NC(=O)NC(C)(C)C#Cc2ccc(COC)cc2)CN2CCC1CC2 (stereo not shown) [Example 327, 1-(3-Ethylquinuclidin-3-yl)-3-(4-(4-(methoxymethyl)phenyl)-2-methylbut-3-yn-2-yl)urea] | 7.83 | 6.46 |  |  | 7.02 |  |  |  |  | ≤ 5.00 | ≤ 5.00 |  | 
18 | CCC1(NC(=O)NC(C)(C)c2ccc(-c3ccc(OCCOC)cc3)cc2)CN2CCC1CC2 (stereo not shown) [Example 159, 1-(3-Ethylquinuclidin-3-yl)-3-(2-(4′-(2-methoxyethoxy)-[1,1′-biphenyl]-4-yl)propan-2-yl)urea] | 9.20 | 8.35 |  |  | 8.25 |  |  |  |  | 6.00 | 6.00 |  | 
19 | CCC1(NC(=O)NC(C)(C)c2ccc(-c3ccc(OCCn4ccnn4)cc3)cc2)CN2CCC1CC2 (stereo not shown) [Example 184, 1-(2-(4′-(2-(1H-1,2,3-Triazol-1-yl)ethoxy)-[1,1′-biphenyl]-4-yl)propan-2-yl)-3-(3-ethylquinuclidin-3-yl)urea] | 8.46 | 6.73 |  |  | 7.68 |  |  |  |  | 6.00 | 5.50 |  | 
20 | CC1(NC(=O)C2CCN(c3cncc(-c4ccc(F)cc4)n3)CC2)CN2CCC1CC2 (stereo not shown) [Example 49, 1-(6-(4-Fluorophenyl)pyrazin-2-yl)-N-(3-methylquinuclidin-3-yl)piperidine-4-carboxamide] | 9.09 | 6.84 |  |  | 8.39 |  |  |  |  | 6.00 | 5.09 |  | 
